Here are results for 22 molecules from ChEMBL document CHEMBL5584224, “Recent advances in c-Met-based dual inhibitors in the treatment of cancers” (Eur J Med Chem, 2024).

One experiment deals with NCI-H3122. Put plainly: Antiproliferative activity against human NCI-H3122 cells assessed as reduction in cell viability incubated for 48 hrs by MTT assay. The experiment is classed as functional, cell-based. To be noted: NCI-H3122, 48 h.
Experiment [1] has as its target Fibroblast growth factor receptor 3 (Homo sapiens, UniProt P22607). The experiment in a line: Inhibition of FGFR3 (unknown origin).
For experiment [2], the target named is Fibroblast growth factor receptor 2 (Homo sapiens, UniProt P21802). The experiment in a line: Inhibition of FGFR2 (unknown origin).
The target of experiment [3] is Fibroblast growth factor receptor 1 (Homo sapiens, UniProt P11362). The experiment in a line: Inhibition of FGFR1 (unknown origin).
Experiment [4] is described as follows: Inhibition of TrxR (unknown origin). Set-up: species or system Homo sapiens.
The subject of a further experiment is HCCLM3. The experiment in a line: Cytotoxicity against human HCCLM3 cells assessed as cell growth inhibition incubated for 48 hrs by MTT assay. The experiment is classed as functional, cell-based. To be noted: HCCLM3, 48 h. In general terms: Formazan colour is commonly taken as a measure of viable cells.
For experiment [5], the system named is A549. The experiment in a line: Antiproliferative activity against human A549 cells assessed as reduction in cell viability incubated for 72 hrs by MTT assay. The experiment is classed as functional, cell-based. Conditions: A549, 72 h.
In the next experiment the test system is PC-9. The experiment in a line: Antiproliferative activity against human PC-9 cells assessed as reduction in cell growth incubated for 72 hrs by MTT assay. The experiment is classed as functional, cell-based. Conditions: PC-9, 72 h.
For another experiment, the system named is COLO 205. The experiment in a line: Antiproliferative activity against human COLO 205 cells assessed as reduction in cell viability incubated for 24 hrs by MTT assay. To be noted: COLO 205, 24 h. The experiment is classed as functional, cell-based.
The target of experiment [6] is Prostaglandin G/H synthase 2 (Homo sapiens, UniProt P35354). Put plainly: Inhibition of COX-2 (unknown origin).
Chain of Prostaglandin G/H synthase 2 (P35354 whole entry): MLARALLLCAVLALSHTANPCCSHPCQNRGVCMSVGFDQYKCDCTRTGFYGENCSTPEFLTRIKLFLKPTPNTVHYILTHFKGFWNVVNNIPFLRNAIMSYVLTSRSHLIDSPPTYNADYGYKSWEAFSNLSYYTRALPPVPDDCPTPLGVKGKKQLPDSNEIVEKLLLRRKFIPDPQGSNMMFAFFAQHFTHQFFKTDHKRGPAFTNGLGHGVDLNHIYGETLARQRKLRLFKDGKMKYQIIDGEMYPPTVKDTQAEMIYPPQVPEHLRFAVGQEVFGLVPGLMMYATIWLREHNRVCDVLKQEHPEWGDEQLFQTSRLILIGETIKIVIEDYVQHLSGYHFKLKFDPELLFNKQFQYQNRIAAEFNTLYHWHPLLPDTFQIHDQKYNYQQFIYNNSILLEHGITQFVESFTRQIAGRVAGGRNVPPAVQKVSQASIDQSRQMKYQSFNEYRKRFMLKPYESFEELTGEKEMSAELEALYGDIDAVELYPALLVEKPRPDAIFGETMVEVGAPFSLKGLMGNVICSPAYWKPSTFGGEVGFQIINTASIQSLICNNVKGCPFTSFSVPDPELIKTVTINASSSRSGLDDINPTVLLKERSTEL
For experiment [7], the system named is MDA-MB-231. Put plainly: Antiproliferative activity against human MDA-MB-231 cells assessed as reduction in cell viability incubated for 24 hrs by MTT assay. Format: functional, cell-based. Conditions: MDA-MB-231, 24 h.
The target of experiment [8] is T1, Hepatocyte growth factor receptor (Homo sapiens, UniProt P08581).
T1 sequence (P08581 whole entry): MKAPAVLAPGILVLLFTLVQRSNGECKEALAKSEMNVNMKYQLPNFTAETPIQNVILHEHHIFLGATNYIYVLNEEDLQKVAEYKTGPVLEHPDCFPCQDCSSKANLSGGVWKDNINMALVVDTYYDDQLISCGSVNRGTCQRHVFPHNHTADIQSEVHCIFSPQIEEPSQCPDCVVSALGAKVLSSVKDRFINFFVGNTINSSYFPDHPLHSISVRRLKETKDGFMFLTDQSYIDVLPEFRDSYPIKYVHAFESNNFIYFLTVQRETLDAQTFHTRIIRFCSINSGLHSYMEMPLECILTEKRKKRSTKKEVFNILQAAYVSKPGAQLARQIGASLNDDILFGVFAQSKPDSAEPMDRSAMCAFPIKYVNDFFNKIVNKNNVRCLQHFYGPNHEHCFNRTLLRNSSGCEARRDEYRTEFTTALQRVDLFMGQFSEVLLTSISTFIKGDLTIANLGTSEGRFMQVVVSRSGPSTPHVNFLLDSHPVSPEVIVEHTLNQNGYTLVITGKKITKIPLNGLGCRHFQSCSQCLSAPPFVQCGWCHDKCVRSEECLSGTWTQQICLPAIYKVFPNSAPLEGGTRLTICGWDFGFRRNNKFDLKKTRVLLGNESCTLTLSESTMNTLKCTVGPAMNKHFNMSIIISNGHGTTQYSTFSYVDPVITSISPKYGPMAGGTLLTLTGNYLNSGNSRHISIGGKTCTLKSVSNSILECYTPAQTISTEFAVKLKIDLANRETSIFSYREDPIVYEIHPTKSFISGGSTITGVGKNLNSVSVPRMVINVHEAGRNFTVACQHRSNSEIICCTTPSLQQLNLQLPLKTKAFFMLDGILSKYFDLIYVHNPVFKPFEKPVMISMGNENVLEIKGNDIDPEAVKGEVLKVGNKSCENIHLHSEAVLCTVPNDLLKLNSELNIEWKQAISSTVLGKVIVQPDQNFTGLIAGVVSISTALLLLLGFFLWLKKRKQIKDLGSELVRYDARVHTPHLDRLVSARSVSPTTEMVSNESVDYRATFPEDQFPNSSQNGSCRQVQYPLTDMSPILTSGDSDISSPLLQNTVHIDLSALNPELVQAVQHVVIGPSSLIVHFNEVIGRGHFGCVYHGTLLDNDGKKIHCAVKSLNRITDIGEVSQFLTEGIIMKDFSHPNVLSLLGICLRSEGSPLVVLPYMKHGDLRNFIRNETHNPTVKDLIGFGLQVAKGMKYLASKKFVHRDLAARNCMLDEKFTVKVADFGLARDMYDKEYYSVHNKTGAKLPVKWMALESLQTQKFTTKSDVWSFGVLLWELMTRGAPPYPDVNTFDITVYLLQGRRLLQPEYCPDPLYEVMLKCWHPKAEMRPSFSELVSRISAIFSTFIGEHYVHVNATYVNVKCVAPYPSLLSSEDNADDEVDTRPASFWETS
Description: Inhibition of c-MET (unknown origin)
The next experiment relates to MCF7. Put plainly: Antiproliferative activity against human MCF7 cells assessed as reduction in cell viability incubated for 24 hrs by MTT assay. Conditions: MCF7, 24 h. The experiment is classed as functional, cell-based.
Experiment [9] concerns A549. The experiment in a line: Antiproliferative activity against human A549 cells assessed as reduction in cell viability incubated for 24 hrs by MTT assay. Format: functional, cell-based. Conditions: A549, 24 h.
For a further experiment, the system named is HT-29. Put plainly: Antiproliferative activity against human HT-29 cells assessed as reduction in cell viability incubated for 24 hrs by MTT assay. The experiment is classed as functional, cell-based. Conditions: HT-29, 24 h.
The next experiment deals with MHCC97H. Put plainly: Antiproliferative activity against human MHCC97H cells assessed as cell growth inhibition incubated for 48 hrs by MTT assay. Format: functional, cell-based.
Another experiment concerns MKN-45. Put plainly: Antiproliferative activity against human MKN-45 cells assessed as cell growth inhibition incubated for 48 hrs by MTT assay. Format: functional, cell-based. Conditions: MKN-45, 48 h.
The target of experiment [10] is T2, Tyrosine-protein kinase receptor UFO (Homo sapiens, UniProt P30530).
T2 sequence (P30530 whole entry): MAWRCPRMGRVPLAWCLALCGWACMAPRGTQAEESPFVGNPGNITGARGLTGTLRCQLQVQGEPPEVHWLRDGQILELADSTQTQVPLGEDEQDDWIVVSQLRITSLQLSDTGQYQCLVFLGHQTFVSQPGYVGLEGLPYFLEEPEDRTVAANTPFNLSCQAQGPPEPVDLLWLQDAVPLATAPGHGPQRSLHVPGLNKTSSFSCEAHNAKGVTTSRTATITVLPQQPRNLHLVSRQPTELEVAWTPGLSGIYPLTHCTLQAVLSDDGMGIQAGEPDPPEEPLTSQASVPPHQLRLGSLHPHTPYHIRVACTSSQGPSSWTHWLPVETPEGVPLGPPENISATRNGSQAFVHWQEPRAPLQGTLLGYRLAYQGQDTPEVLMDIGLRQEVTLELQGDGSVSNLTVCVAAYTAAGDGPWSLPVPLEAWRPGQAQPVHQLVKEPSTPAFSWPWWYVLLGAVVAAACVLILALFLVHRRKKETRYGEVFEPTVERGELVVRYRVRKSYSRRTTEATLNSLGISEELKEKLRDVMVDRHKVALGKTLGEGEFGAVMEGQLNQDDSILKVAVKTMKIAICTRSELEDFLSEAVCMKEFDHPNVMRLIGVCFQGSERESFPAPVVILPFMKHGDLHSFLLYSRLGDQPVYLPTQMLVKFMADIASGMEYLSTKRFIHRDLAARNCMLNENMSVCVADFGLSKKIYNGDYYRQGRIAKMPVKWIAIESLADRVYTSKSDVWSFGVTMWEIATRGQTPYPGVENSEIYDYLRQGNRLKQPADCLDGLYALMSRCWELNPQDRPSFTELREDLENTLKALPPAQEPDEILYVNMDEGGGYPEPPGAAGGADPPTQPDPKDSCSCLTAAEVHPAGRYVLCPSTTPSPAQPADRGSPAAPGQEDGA
Put plainly: Inhibition of AXL (unknown origin).

Experiment [11] concerns HepG2. The experiment in a line: Antiproliferative activity against human HepG2 cells assessed as reduction in cell viability incubated for 72 hrs by MTT assay. The experiment is classed as functional, cell-based. Conditions: HepG2, 72 h.
Experiment [12] relates to HepG2. Put plainly: Antitumor activity against human HepG2 cells xenografted in mouse model assessed as tumor growth inhibition at 16 mg/kg/day for 7 days relative to control. Format: functional. Details: scale not given: the % may be the effect or the level left. To be noted: time 7 day. Background: Xenograft models place foreign cells or tissue in a host animal.
The subject of experiment [13] is HepG2. Put plainly: Antitumor activity against human HepG2 cells xenografted in mouse model assessed as tumor growth inhibition at 48 mg/kg/day for 7 days relative to control. Format: functional. Details: scale not given: the % may be the effect or the level left. To be noted: time 7 day.
The target in another experiment is Histone deacetylase 1 (Homo sapiens, UniProt Q13547). Put plainly: Inhibition of HDAC1 (unknown origin) expressed in Sf9 cells using Z-Lys(Ac)-AMC as fluorogenic substrate preincubated for 60 mins followed by substrate addition and measured after 1 hr by fluorescence based microplate analysis.
Chain of Histone deacetylase 1 (Q13547 whole entry): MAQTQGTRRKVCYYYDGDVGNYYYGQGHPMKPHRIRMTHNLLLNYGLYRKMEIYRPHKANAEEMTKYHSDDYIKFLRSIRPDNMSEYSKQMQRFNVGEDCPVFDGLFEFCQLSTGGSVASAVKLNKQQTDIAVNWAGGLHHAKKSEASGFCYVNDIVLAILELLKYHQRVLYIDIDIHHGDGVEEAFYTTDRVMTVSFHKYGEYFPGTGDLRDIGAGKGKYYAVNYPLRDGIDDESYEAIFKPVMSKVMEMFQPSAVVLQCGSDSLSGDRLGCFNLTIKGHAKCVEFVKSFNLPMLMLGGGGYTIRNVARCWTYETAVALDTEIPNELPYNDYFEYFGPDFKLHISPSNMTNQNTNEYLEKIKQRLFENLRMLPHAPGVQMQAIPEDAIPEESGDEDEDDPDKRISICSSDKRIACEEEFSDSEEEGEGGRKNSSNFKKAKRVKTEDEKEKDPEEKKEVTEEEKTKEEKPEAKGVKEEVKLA
Experiment [14] concerns the target T1, Hepatocyte growth factor receptor. The experiment in a line: Inhibition of c-Met (unknown origin) by mobility shift assay.
The test system of another experiment is NCI-H322M. The experiment in a line: Antiproliferative activity against human NCI-H322M cells assessed as cell growth inhibition incubated for 72 hrs by MTT assay. The experiment is classed as functional, cell-based.
The next experiment relates to KB 3-1. The experiment in a line: Antiproliferative activity against human KB-3-1 cells assessed as cell growth inhibition. The experiment is classed as functional, cell-based.
The next experiment has as its system BT-549. The experiment in a line: Antiproliferative activity against human BT-549 cells assessed as reduction in cell viability by MTT assay. Format: functional, cell-based.
Experiment [15] concerns MDA-MB-231. Put plainly: Antiproliferative activity against human MDA-MB-231 cells assessed as reduction in cell viability by MTT assay. Format: functional, cell-based.
Another experiment relates to 4T1. The experiment in a line: Antiproliferative activity against mouse 4T1 cells assessed as reduction in cell viability by MTT assay. The experiment is classed as functional, cell-based.
The target of experiment [16] is ALK tyrosine kinase receptor (Homo sapiens, UniProt Q9UM73).
Chain of ALK tyrosine kinase receptor (Q9UM73 whole entry): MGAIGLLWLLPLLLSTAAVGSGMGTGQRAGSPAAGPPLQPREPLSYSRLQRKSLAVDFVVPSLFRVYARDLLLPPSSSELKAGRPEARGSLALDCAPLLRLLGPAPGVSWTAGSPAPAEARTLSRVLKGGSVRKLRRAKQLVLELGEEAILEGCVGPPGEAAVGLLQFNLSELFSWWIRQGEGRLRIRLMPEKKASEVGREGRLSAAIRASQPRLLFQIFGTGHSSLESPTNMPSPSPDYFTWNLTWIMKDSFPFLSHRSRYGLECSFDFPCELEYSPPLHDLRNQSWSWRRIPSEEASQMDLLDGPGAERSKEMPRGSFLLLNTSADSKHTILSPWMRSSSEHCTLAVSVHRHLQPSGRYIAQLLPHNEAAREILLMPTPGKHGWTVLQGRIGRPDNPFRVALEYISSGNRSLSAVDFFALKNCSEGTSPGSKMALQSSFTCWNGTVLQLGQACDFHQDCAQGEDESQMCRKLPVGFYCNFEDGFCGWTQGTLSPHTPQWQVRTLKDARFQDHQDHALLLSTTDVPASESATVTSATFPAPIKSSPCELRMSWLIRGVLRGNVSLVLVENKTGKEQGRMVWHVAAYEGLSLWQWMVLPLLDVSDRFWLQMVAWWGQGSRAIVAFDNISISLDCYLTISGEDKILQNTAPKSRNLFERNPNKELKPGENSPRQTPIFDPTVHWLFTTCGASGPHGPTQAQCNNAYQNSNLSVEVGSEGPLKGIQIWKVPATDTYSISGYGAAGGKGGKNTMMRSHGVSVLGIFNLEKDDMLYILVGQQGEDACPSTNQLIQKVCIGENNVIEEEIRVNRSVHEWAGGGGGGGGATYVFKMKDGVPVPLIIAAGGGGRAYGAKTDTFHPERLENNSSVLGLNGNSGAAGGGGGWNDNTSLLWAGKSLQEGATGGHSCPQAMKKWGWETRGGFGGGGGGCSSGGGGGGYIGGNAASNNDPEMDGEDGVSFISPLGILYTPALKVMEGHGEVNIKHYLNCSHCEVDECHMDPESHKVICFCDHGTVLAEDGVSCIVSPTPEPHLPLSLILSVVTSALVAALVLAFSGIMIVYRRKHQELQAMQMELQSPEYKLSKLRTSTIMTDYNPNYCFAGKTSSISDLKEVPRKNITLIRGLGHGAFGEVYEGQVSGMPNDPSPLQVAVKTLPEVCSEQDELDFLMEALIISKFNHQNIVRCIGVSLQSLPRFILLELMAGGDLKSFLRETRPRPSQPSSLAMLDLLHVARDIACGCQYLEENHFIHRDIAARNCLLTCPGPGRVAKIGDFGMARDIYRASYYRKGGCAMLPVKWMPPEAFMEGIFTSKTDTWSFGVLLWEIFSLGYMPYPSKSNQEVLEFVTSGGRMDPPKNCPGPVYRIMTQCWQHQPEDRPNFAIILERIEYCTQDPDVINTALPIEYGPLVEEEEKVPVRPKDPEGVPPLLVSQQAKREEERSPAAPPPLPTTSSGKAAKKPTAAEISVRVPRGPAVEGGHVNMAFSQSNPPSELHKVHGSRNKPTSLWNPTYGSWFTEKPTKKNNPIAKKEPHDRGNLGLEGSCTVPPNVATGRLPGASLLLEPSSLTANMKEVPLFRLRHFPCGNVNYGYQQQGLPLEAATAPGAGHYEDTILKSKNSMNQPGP
Description: Inhibition of ALK (unknown origin) by TR-FRET assay

Molecules are shown by their SMILES. pIC50: −log10 of the molar value.

Chain of Fibroblast growth factor receptor 3 (P22607 whole entry): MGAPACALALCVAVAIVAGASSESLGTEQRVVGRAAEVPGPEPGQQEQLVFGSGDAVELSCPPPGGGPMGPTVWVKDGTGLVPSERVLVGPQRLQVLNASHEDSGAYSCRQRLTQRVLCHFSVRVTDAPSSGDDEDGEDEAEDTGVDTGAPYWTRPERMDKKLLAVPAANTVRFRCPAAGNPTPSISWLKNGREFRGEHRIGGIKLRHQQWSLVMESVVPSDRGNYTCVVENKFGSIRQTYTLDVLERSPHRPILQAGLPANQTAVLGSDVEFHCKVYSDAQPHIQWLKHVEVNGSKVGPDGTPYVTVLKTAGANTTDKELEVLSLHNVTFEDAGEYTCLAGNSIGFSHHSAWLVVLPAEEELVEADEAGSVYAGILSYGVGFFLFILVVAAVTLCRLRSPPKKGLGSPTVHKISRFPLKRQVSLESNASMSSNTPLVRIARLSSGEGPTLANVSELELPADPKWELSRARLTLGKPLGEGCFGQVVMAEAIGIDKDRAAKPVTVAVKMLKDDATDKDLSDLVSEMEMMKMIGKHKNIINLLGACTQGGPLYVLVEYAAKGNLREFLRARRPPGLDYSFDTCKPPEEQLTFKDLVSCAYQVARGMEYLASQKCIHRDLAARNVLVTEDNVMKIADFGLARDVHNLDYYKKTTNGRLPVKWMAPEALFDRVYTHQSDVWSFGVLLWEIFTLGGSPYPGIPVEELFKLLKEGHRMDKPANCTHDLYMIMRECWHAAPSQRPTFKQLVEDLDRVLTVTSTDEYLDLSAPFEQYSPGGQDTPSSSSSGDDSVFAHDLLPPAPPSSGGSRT

In general, pIC50 refers to the negative decadic logarithm of the IC50, by convention in mol/L. `C[C@@H](Oc1cc(C(=O)Nc2ccc(C(=O)N3CCN(C)CC3)cc2)nnc1N)c1c(Cl)ccc(F)c1Cl`: the pIC50 in the experiment on NCI-H3122 was 7.11.
As to `O=C1Nc2ccc(CN3C(=O)CSC3=O)cc2/C1=C/c1cc(CN2CCOCC2)c[nH]1`, the pIC50 in [1] was 7.82; in experiment [2] it was 7.77; in [3] it was 7.74.
Molecule `O=C(Nc1cccc(-c2nc(-c3ccc(NC(=O)c4cccnc4)cc3Cl)no2)c1)Nc1ccc(NC(=O)C2CC2)c(C(F)(F)F)c1` showed a pIC50 in [4] of 6.30.
For `CN(C)CCC[Se]c1cnc(-c2cccc(Cn3nc(-c4cccc(C#N)c4)ccc3=O)c2)nc1`, the pIC50 in the experiment on HCCLM3 was 7.89.
Regarding `C=CC(=O)Nc1cc2c(Oc3ccc(NC(=O)c4c(C)n(C)n(-c5ccccc5)c4=O)cc3F)ncnc2cc1OC`, the pIC50 in the experiment on A549 [5] was 5.97; with PC-9, 5.98.
As to `O=C(/C=C/c1ccc(F)cc1)c1cccc(NC(=O)c2ccc(Cl)cc2)c1`, the pIC50 with COLO 205 was greater than 7.00; in [6], 5.61; in the experiment with MDA-MB-231 [7], 4.37; in [8], 5.10; in the experiment on MCF7, 5.15; with A549 [9] it was 4.36. In addition, the negative-log IC50 (pIC50) in the experiment on HT-29 is 4.87.
Consider `Cc1ccc(C(=O)Nc2cccc(C(=O)/C=C/c3ccc(F)cc3)c2)cc1`, for which the pIC50 was greater than 7.00 with COLO 205; 5.79 in experiment [6]; 5.10 with MDA-MB-231 [7]; 5.18 in [8]; 4.80 with MCF7; 4.43 in the experiment with A549 [9]. The pIC50 in the experiment on HT-29 was 4.98.
With `[2H][C@@](C)(c1cccc(-c2ncc(OCC3CCN(C)CC3)cn2)c1)n1nc(-c2cccc(C#N)c2)ccc1=O`, the pIC50 is 8.37 with MHCC97H and 9.00 with MKN-45.
Take `O=C(Nc1ccc(F)cc1)C1(C(=O)Nc2ccc(Oc3ncnn4cc(-c5cnn(CCO)c5)cc34)cc2)CC1`: in [10], the pIC50 was 8.07.
Same read-out and setting: as for `Cn1cc(-c2cc3c(Oc4ccc(NC(=O)C5(C(=O)Nc6ccc(F)cc6)CC5)cc4)ncnn3c2)cn1`, the figure is 7.59.
Same read-out and setting: as for `CC(C)n1cc(C(=O)Nc2ccc(Oc3ccnc4c3Oc3ccccc3N4)c(F)c2)c(=O)c(-c2ccc(F)cc2)c1`, the figure is 8.15.
Regarding `Cc1ccccc1NS(=O)(=O)c1ccc2c(c1)/C(=C/c1nc3ccccc3[nH]1)C(=O)N2.Cl`, the negative-log IC50 (pIC50) in the experiment on HepG2 [11] was 5.83. In addition, the Activity in the experiment on HepG2 [12] and in the experiment on HepG2 [13] was 65.2% each time.
With `Nc1ccccc1NC(=O)c1ccc(OCCCOc2ccc3c(OCCn4nc(-c5cn[nH]c5)ccc4=O)ccnc3c2)cn1`, the pIC50 is 7.42 on Histone deacetylase 1 and 9.15 in experiment [14].
With `COc1cc2nccc(Oc3ccc(Nc4nccc5ccn(-c6ccc(Br)cc6)c(=O)c45)cc3F)c2cc1OC`, the negative-log IC50 (pIC50) in [10] was less than 6.00.
The same measure, in the same setting: as for `COc1cc2nccc(Oc3ccc(Nc4nccc5ccn(-c6ccc(C)cc6)c(=O)c45)cc3F)c2cc1OC`, the figure is 7.76.
Regarding `C/C=C(/C=O)[C@@H](CC=O)CC(=O)OCCc1ccc(O)cc1` [(-)-OLEOCANTHAL], the figures for the negative-log IC50 (pIC50) with A549 [9] and with NCI-H322M were 5.00 and 4.58, respectively.
As to `COc1cc2c(c(OC)c1OC)-c1ccc(OC)c(=O)cc1[C@@H](NC(C)=O)CC2` [COLCHICINE], the pIC50 in the experiment on KB 3-1 is 5.72.
For the molecule `COc1cc2nc(N3CCN(C(=O)C4COc5ccccc5O4)CC3)nc(N)c2cc1OC` (centres undefined) [DOXAZOSIN], the negative-log IC50 (pIC50) was 4.61 in the experiment with BT-549, 4.62 in the experiment with MDA-MB-231 [15] and 5.11 with 4T1.
`COc1cccc2c1C(=O)c1c(O)c3c(c(O)c1C2=O)C[C@@](O)(C(=O)CO)C[C@@H]3O[C@H]1C[C@H](N)[C@H](O)[C@H](C)O1` [DOXORUBICIN]: the negative logarithm of the IC50 (pIC50) with KB 3-1 was 8.22.
In [16], `COc1cc(N2CCNC[C@@H]2C)ncc1-c1cnc(N)c(O[C@H](C)c2c(Cl)ccc(F)c2Cl)c1` [ENVONALKIB] gave a negative-log IC50 (pIC50) of 7.84.
For `COCCNCc1ccc(-c2cc3nccc(Oc4ccc(NC(=S)NC(=O)Cc5ccc(F)cc5)cc4F)c3s2)nc1` [GLESATINIB], in the experiment on KB 3-1, the pIC50 is 8.40.
On the same count and under the same terms, as for `CC(=O)O[C@H]1C(=O)[C@@]2(C)[C@H]([C@H](OC(=O)c3ccccc3)[C@]3(O)C[C@H](OC(=O)[C@H](O)[C@@H](NC(=O)c4ccccc4)c4ccccc4)C(C)=C1C3(C)C)[C@]1(OC(C)=O)CO[C@@H]1C[C@@H]2O` [PACLITAXEL], the figure is 7.54.
